Measured values reported in ChEMBL document CHEMBL1201862, “PubChem BioAssay data set” (2004).
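Five concentrations, 48 hours, 96-well plates. The concentration for 50% growth inhibition is given as GI50.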 Activity calls are given as the source filed them. No stated cut-off is given here; in the data, active = GI50 up to about 1.1 µM and inactive = higher.

How the values were obtained:
Experiment in all cases: NCI-60 cell line screen, 48 h
[1] = system: OVCAR-4
[2] = system: LOX IMVI
[3] = system: 786-0
[4] = system: MDA-MB-435
[5] = system: RPMI-8226
[6] = system: COLO 205
[7] = system: A498
[8] = system: BT-549
[9] = system: EKVX
[10] = system: SW-620
[11] = system: RXF 393
[12] = system: SK-MEL-28
[13] = system: T47D
[14] = system: NCI-H522
[15] = system: HT-29
[16] = system: SF-268
[17] = system: Hs-578T
[18] = system: ACHN
[19] = system: OVCAR-3

| Structure (SMILES) | GI50 [1] | GI50 [2] | GI50 [3] | GI50 [4] | GI50 [5] | GI50 [6] | GI50 [7] | GI50 [8] | GI50 [9] | GI50 [10] | GI50 [11] | GI50 [12] | GI50 [13] | GI50 [14] | GI50 [15] | GI50 [16] | GI50 [17] | GI50 [18] | GI50 [19] |
| --- | --- | --- | --- | --- | --- | --- | --- | --- | --- | --- | --- | --- | --- | --- | --- | --- | --- | --- | --- |
| O=C1C(Cl)=C(Nc2ccc(S(=O)(=O)Nc3ccccn3)cc2)C(=O)c2ccccc21 | 17.3 µM (inactive) | 1.78 µM (inactive) | 8.22 µM (inactive) | 6.55 µM (inactive) | 3.52 µM (inactive) | 13.9 µM (inactive) | 20.7 µM (inactive) | 14.4 µM (inactive) | 9.4 µM (inactive) | 5.78 µM (inactive) | 7.35 µM (inactive) | 16.3 µM (inactive) | 6.08 µM (inactive) | 5.02 µM (inactive) | 7.5 µM (inactive) | 8.2 µM (inactive) | 13.1 µM (inactive) | 10.6 µM (inactive) | 4.65 µM (inactive) |
| CCCCn1cnc2c(c(CC#N)nn2-c2ccccc2)c1=N | 29.8 µM (inactive) | 39.3 µM (inactive) | 57.1 µM (inactive) | 32.3 µM (inactive) | 27.4 µM (inactive) | 30.7 µM (inactive) | 24.5 µM (inactive) | 37.8 µM (inactive) | 48.8 µM (inactive) | 41.9 µM (inactive) | 70.1 µM (inactive) | 44.1 µM (inactive) | 35.7 µM (inactive) | 43.1 µM (inactive) | 33.4 µM (inactive) | 71.1 µM (inactive) | 39.9 µM (inactive) | 66.1 µM (inactive) | 63.7 µM (inactive) |
| Cc1ccc(CSC(=N)Nc2ccccc2)cc1C | 16.1 µM (inactive) | 18.9 µM (inactive) | 19.3 µM (inactive) | 15.2 µM (inactive) | 22.5 µM (inactive) | 16.3 µM (inactive) | 16.6 µM (inactive) | 22.3 µM (inactive) | 26.4 µM (inactive) | 38.3 µM (inactive) | 15.7 µM (inactive) | 24.7 µM (inactive) | 17.2 µM (inactive) | 15.8 µM (inactive) | 19.1 µM (inactive) | 17 µM (inactive) | 23.2 µM (inactive) | 33.3 µM (inactive) | 19.3 µM (inactive) |
| C[N+](C)(C)c1ncnc2c1ncn2C1CCCCO1 (stereo unspecified) | > 100 µM (inactive) | > 100 µM (inactive) | > 100 µM (inactive) | > 100 µM (inactive) | > 100 µM (inactive) | > 100 µM (inactive) | > 100 µM (inactive) | > 100 µM (inactive) | > 100 µM (inactive) | > 100 µM (inactive) | > 100 µM (inactive) | > 100 µM (inactive) | > 100 µM (inactive) | > 100 µM (inactive) | > 100 µM (inactive) | > 100 µM (inactive) | > 100 µM (inactive) | > 100 µM (inactive) | > 100 µM (inactive) |
| Cn1c(=S)[nH]c2sc3c(c2c1=O)CCSC3 | 43 µM (inactive) | 36.6 µM (inactive) | 76.6 µM (inactive) | 49.1 µM (inactive) | 32.4 µM (inactive) | 47.1 µM (inactive) | 31.6 µM (inactive) | 32.4 µM (inactive) | 20.8 µM (inactive) | 35.7 µM (inactive) | 3.05 µM (inactive) |  | 25.1 µM (inactive) | 36.9 µM (inactive) | 29.9 µM (inactive) | 26.2 µM (inactive) | > 100 µM (inactive) | 42.9 µM (inactive) | 24.8 µM (inactive) |
| C=C(C(=O)OC)N1C(=O)CC(C)C1=O (stereo unspecified) | 18.2 µM (inactive) | 7.14 µM (inactive) | 10.7 µM (inactive) | 16.9 µM (inactive) | 4.91 µM (inactive) | 4.2 µM (inactive) | 20.7 µM (inactive) | 14.6 µM (inactive) | 14.7 µM (inactive) | 9.35 µM (inactive) | 9.71 µM (inactive) | 9.55 µM (inactive) | 11.1 µM (inactive) | 1.9 µM (inactive) | 10.7 µM (inactive) | 16.7 µM (inactive) | 24.3 µM (inactive) | 2.83 µM (inactive) | 8.05 µM (inactive) |
| CCOC(=O)/C(=N\OC)C(O)C(F)(F)F (stereo unspecified) |  | > 100 µM (inactive) | > 100 µM (inactive) | > 100 µM (inactive) | > 100 µM (inactive) | > 100 µM (inactive) | > 100 µM (inactive) | > 100 µM (inactive) | > 100 µM (inactive) | > 100 µM (inactive) | > 100 µM (inactive) | > 100 µM (inactive) | > 100 µM (inactive) | > 100 µM (inactive) | > 100 µM (inactive) | > 100 µM (inactive) | > 100 µM (inactive) | > 100 µM (inactive) |  |
| CCOC(=O)CC(C)C(C#N)(OP1(=O)OC(c2ccccc2)C(C)N1C)c1ccccc1 (stereo unspecified) |  | 55.3 µM (inactive) | 77.8 µM (inactive) | 61 µM (inactive) | 36.3 µM (inactive) | 18.5 µM (inactive) | 65.3 µM (inactive) | 55.1 µM (inactive) | 62.2 µM (inactive) | 54.7 µM (inactive) | 67.5 µM (inactive) | 81.7 µM (inactive) | 30.5 µM (inactive) | 62.5 µM (inactive) | 57.7 µM (inactive) | > 100 µM (inactive) | 83.6 µM (inactive) | 44.1 µM (inactive) | 50.7 µM (inactive) |
| CSc1c(C#N)c(O)n(-c2ccc(Cl)cc2)c(=O)c1C(C)=O | 37.5 µM (inactive) | 34.4 µM (inactive) | 37.7 µM (inactive) | 88.3 µM (inactive) | 26 µM (inactive) | 24.2 µM (inactive) | 29.3 µM (inactive) | 90.6 µM (inactive) | > 100 µM (inactive) | 44.7 µM (inactive) | 33.6 µM (inactive) | > 100 µM (inactive) | 27.1 µM (inactive) | 0.433 µM (active) | 34.8 µM (inactive) | 61.7 µM (inactive) | > 100 µM (inactive) |  | 48.3 µM (inactive) |
| CC1=C(C(=O)Nc2ccccc2)C(c2ccc(C)o2)C(C#N)=C(SCc2ccccc2)N1 (stereo unspecified) | > 72.3 µM (inactive) | > 100 µM (inactive) | > 100 µM (inactive) | 4.58 µM (inactive) | 25.1 µM (inactive) | 31.3 µM (inactive) | > 81.5 µM (inactive) | 43.4 µM (inactive) | > 84.3 µM (inactive) | > 58.6 µM (inactive) | > 37.6 µM (inactive) | > 100 µM (inactive) | 13.3 µM (inactive) | 9.55 µM (inactive) | 34.9 µM (inactive) | > 100 µM (inactive) | > 87.3 µM (inactive) | > 100 µM (inactive) | 51.9 µM (inactive) |
| N#Cc1cc2cc3c4c(c2oc1=O)CCCN4CCC3 | > 100 µM (inactive) | > 100 µM (inactive) | > 100 µM (inactive) | > 100 µM (inactive) | > 100 µM (inactive) | > 100 µM (inactive) | > 100 µM (inactive) | > 100 µM (inactive) | 5.02 µM (inactive) | > 100 µM (inactive) | > 100 µM (inactive) | > 100 µM (inactive) | > 100 µM (inactive) | > 100 µM (inactive) | > 100 µM (inactive) | > 100 µM (inactive) | > 100 µM (inactive) | > 100 µM (inactive) | > 100 µM (inactive) |
| c1ccc(N2N=C3N(c4ccccc4)C2N3c2ccccc2)cc1 | 35.6 µM (inactive) | 21.1 µM (inactive) |  | 17.6 µM (inactive) | 15.7 µM (inactive) | 19.5 µM (inactive) | 33.1 µM (inactive) | 68.2 µM (inactive) | > 100 µM (inactive) | 33.4 µM (inactive) | 45.3 µM (inactive) | 19.1 µM (inactive) | 52.4 µM (inactive) | 21.6 µM (inactive) | 29.4 µM (inactive) | 52.8 µM (inactive) | 57.7 µM (inactive) | 40.5 µM (inactive) | 36.6 µM (inactive) |
| C/C(=N\NC(=S)NC(C)(C)C)c1ccccn1 | 4.1 µM (inactive) | < 0.01 µM (active) | < 0.0406 µM (active) | 1.52 µM (inactive) | < 0.01 µM (active) | < 0.01 µM (active) | 0.248 µM (active) | 3.1 µM (inactive) |  | < 0.01 µM (active) | < 0.01 µM (active) | 3.66 µM (inactive) | < 0.01 µM (active) | 0.191 µM (active) |  | 1.39 µM (inactive) | 1.12 µM (inactive) | < 0.01 µM (active) | < 0.01 µM (active) |
| Fc1ccc2nc3n(c2c1)C(c1c(F)cccc1F)SC3 (stereo unspecified) | 64.3 µM (inactive) | 50.7 µM (inactive) | > 100 µM (inactive) | 40.5 µM (inactive) | 60.4 µM (inactive) | 45.2 µM (inactive) | 65.5 µM (inactive) | 70 µM (inactive) |  | 49.5 µM (inactive) | 53.7 µM (inactive) | > 100 µM (inactive) | 40.6 µM (inactive) | 28.1 µM (inactive) | 33.3 µM (inactive) | > 100 µM (inactive) | > 100 µM (inactive) | 67.9 µM (inactive) | 54.8 µM (inactive) |
| C(=C\c1ccccc1)/COc1ccccc1C(N1CCOCC1)n1nc2ccccc2n1 (stereo unspecified) | 12.2 µM (inactive) | 2.9 µM (inactive) | 3.29 µM (inactive) | 0.365 µM (active) | 2.92 µM (inactive) | 19.9 µM (inactive) | 38.1 µM (inactive) | 7.55 µM (inactive) | 21.2 µM (inactive) | 4.28 µM (inactive) | 3.94 µM (inactive) | 10.7 µM (inactive) | 10.7 µM (inactive) | 22 µM (inactive) | 3 µM (inactive) | 5.71 µM (inactive) | 7.24 µM (inactive) | 7.98 µM (inactive) | 2.18 µM (inactive) |
